# Measurements as given in ChEMBL document CHEMBL1149003, “Studies on cytotoxic constituents in pericarps of Mallotus japonicus, Part II” (J Nat Prod, 1986).
# Assays:
# [1] = test system: Mus musculus; test: Toxicity in ddY mouse xenografted with mouse solid Ehrlich carcinoma cells assessed as mortality at 20 mg/kg, ip qd for 3 to 8 days measured after 10 days; assay type: organism-based; design: dose 20 mg/kg, route intraperitoneal; details: in vivo, 240 h
# [2] = Antitumor activity against mouse solid EAC cells xenografted in ddY mouse assessed as tumor weight at 20 mg/kg, ip qd for 3 to 8 days measured after 10 days; assay type: functional, Ehrlich; details: route intraperitoneal
# [3] = test system: KB; test: Cytotoxicity against human KB cells; assay type: functional; details: read-out: ED50 (the source's name)
# [4] = Antitumor activity against mouse EAC cells xenografted in ddY mouse assessed as median survival time at 7 mg/kg, ip qd for 2 to 8 days; assay type: functional, Ehrlich; details: route intraperitoneal
# [5] = Antitumor activity against mouse EAC cells xenografted in ddY mouse assessed as median survival time at 20 mg/kg, ip qd for 2 to 8 days; assay type: functional, Ehrlich; details: route intraperitoneal
# [6] = Antitumor activity against mouse solid EAC cells xenografted in ddY mouse at 7 mg/kg, ip qd for 3 to 8 days measured after 10 days relative to control; assay type: functional, Ehrlich; details: route intraperitoneal
# [7] = test system: L5178Y; test: Cytotoxicity against mouse L5178Y cells; assay type: functional; details: read-out: ED50 (the source's name)
# [8] = Antitumor activity against mouse solid EAC cells xenografted in ddY mouse assessed as tumor weight at 7 mg/kg, ip qd for 3 to 8 days measured after 10 days; assay type: functional, Ehrlich; details: route intraperitoneal
# [9] = test system: Mus musculus; test: Toxicity in ddY mouse xenografted with mouse solid Ehrlich carcinoma cells assessed as mortality at 7 mg/kg, ip qd for 3 to 8 days measured after 10 days; assay type: organism-based; design: dose 7 mg/kg, route intraperitoneal; details: in vivo, 240 h
# [10] = Antitumor activity against mouse solid EAC cells xenografted in ddY mouse at 20 mg/kg, ip qd for 3 to 8 days measured after 10 days relative to control; assay type: functional, Ehrlich; details: route intraperitoneal
SMILES,Activity [1],Activity [2] [g],EC50 [3] [µg/mL],MST [4] [days],MST [5] [days],T/C [6] [%],EC50 [7] [µg/mL],Activity [8] [g],Activity [9],T/C [10] [%]
COc1c(C)c(O)c(C(C)=O)c(O)c1Cc1c(O)c(CC=C(C)C)c(O)c(C(C)=O)c1O [MALLOTOJAPONIN],Non-toxic,0.59,0.58,20,14,78.1,0.74,0.93,Non-toxic,49.5
C=C(C)C(O)Cc1c(O)c(Cc2c(O)c(C(C)=O)c(O)c(C)c2OC)c(O)c(C(C)=O)c1O (racemic),–,–,1.22,–,–,–,2.45,–,–,–
COc1c(C)c(O)c(C(C)=O)c(O)c1Cc1c(O)c2c(c(C(C)=O)c1O)OC(C)(C)C=C2 [MALLOTOCHROMENE],–,–,2.1,–,–,–,1.25,–,–,–
COc1c(C)c(O)c(C(C)=O)c(O)c1Cc1c(O)c2c(c(C(C)=O)c1O)OC(C)(C)C(O)C2 (racemic) [MALLOTOCHROMANOL],–,–,> 100,–,–,–,> 100,–,–,–
C=C(C)C(O)Cc1c(O)c(Cc2c(O)c(C(C)=O)c(O)c(C)c2OC)c(O)c(C(=O)CCC)c1O (racemic) [MALLOTOLERIN],–,–,0.95,–,–,–,0.82,–,–,–
